ChEMBL document CHEMBL4265897, “Discovery of benzothiazole amides as potent antimycobacterial agents” (Bioorg Med Chem Lett, 2018)
≈ marks a conversion by molar mass, not a printed value.

Experiments:
[1] = test system: Mycobacteroides abscessus; assay: Antimycobacterial activity against Mycobacterium abscessus ATCC 19977 by CLSI method; type: functional
[2] = test system: Mycobacterium intracellulare; assay: Antimycobacterial activity against Mycobacterium intracellulare 1956 by CLSI method; type: functional
[3] = test system: Mycobacterium tuberculosis; assay: Antimycobacterial activity against Mycobacterium tuberculosis H37Rv MC2 6206 by CLSI method; type: functional
Mycobacterium avium = assay: Antimycobacterial activity against Mycobacterium avium 101 by CLSI method; type: functional
Mycobacteroides chelonae = assay: Antimycobacterial activity against Mycobacterium chelonae 93 by CLSI method; type: functional
[4] = test system: Mycobacteroides abscessus; assay: Antimycobacterial activity against Mycobacterium massiliense 119 by CLSI method; type: functional, Mycobacterium abscessus subsp. massiliense
[5] = test system: Mycolicibacterium peregrinum; assay: Antimycobacterial activity against Mycobacterium peregrinum ATCC 700686 by CLSI method; type: functional
[6] = test system: Mycobacteroides abscessus; assay: Antimycobacterial activity against Mycobacterium abscessus 1 by CLSI method; type: functional
[7] = test system: Mycolicibacterium fortuitum; assay: Antimycobacterial activity against Mycobacterium fortuitum 41 by CLSI method; type: functional
[8] = test system: Mycobacteroides abscessus; assay: Antimycobacterial activity against Mycobacterium abscessus 79 by CLSI method; type: functional
[9] = test system: Mycobacteroides abscessus; assay: Antimycobacterial activity against Mycobacterium abscessus 21 by CLSI method; type: functional
Cytochrome P450 2B6 = biological target: T1, Cytochrome P450 2B6 (Homo sapiens, UniProt P20813); assay: Inhibition of CYP2B6 (unknown origin); type: ADME
T1 sequence (P20813 whole entry): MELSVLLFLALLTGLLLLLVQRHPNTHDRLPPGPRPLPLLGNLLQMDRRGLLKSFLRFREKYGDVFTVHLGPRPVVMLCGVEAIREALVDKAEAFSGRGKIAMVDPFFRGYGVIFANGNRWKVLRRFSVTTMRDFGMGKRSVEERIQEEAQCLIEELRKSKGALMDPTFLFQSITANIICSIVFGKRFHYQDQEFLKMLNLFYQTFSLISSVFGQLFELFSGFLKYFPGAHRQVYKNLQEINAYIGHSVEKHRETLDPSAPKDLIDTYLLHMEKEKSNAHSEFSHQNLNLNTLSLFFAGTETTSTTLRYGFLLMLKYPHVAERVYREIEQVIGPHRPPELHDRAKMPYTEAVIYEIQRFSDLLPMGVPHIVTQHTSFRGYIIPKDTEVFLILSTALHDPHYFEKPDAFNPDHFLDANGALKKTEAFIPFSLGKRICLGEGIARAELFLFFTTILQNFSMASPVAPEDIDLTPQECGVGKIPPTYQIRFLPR

Cytochrome P450 2C9 = Cytochrome P450 2C9 (Homo sapiens, UniProt P11712); assay: Inhibition of CYP2C9 (unknown origin); type: ADME
Cytochrome P450 3A4 [10] = biological target: T2, Cytochrome P450 3A4 (Homo sapiens, UniProt P08684); assay: Inhibition of CYP3A4 (unknown origin) using midazolam as substrate; type: ADME
Cytochrome P450 2C8 = biological target: T3, Cytochrome P450 2C8 (Homo sapiens, UniProt P10632); assay: Inhibition of CYP2C8 (unknown origin); type: ADME
T3 sequence (P10632 whole entry): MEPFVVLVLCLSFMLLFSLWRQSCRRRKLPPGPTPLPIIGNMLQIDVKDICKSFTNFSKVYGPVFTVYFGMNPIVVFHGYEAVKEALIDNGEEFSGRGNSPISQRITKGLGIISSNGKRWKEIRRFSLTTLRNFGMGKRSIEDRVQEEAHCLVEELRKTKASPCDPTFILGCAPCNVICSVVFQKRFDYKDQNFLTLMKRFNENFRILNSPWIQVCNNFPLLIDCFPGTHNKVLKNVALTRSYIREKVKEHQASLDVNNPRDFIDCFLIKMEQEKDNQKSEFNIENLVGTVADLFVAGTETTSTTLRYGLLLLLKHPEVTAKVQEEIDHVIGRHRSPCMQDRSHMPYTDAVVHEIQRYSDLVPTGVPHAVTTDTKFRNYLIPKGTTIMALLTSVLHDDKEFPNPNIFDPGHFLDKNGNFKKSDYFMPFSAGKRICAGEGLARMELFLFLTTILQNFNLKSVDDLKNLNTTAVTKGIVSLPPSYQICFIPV

Cytochrome P450 3A4 [11] = biological target: T2, Cytochrome P450 3A4; assay: Inhibition of CYP3A4 (unknown origin) using testosterone as substrate; type: ADME
[12] = Solubility of the compound; type: physicochemical
Cytochrome P450 2C19 = Cytochrome P450 2C19 (Homo sapiens, UniProt P33261); assay: Inhibition of CYP2C19 (unknown origin); type: ADME
[13] = Protein binding in human serum; type: ADME, cell-free; conditions: read-out: PB
RBCs = assay: Hemolytic activity in RBC (unknown origin) at 128 ug/ml; type: ADME, cell-based; conditions: erythrocyte
[14] = test system: Mycobacteroides abscessus; assay: Antimycobacterial activity against Mycobacterium abscessus 103 by CLSI method; type: functional
Cytochrome P450 2D6 = Cytochrome P450 2D6 (Homo sapiens, UniProt P10635); assay: Inhibition of CYP2D6 (unknown origin); type: ADME
HepG2 = assay: Cytotoxicity against human HepG2 cells; type: cell-based
[15] = Oral bioavailability in mouse at 100 mg/kg; type: ADME, organism-based; conditions: in vivo
[16] = Clearance in mouse plasma at 10 mg/kg, iv; type: ADME, organism-based
CYP3A4 = CYP3A4 (Homo sapiens, UniProt P08684); assay: Inhibition of CYP3A4 (unknown origin) at 10 uM; type: ADME
CYP2B6 = biological target: T4, CYP2B6 (Homo sapiens, UniProt P20813); assay: Inhibition of CYP2B6 (unknown origin) at 10 uM; type: ADME
T4 sequence (P20813 whole entry): T1 sequence (P20813 whole entry)

T2 sequence (P08684 whole entry): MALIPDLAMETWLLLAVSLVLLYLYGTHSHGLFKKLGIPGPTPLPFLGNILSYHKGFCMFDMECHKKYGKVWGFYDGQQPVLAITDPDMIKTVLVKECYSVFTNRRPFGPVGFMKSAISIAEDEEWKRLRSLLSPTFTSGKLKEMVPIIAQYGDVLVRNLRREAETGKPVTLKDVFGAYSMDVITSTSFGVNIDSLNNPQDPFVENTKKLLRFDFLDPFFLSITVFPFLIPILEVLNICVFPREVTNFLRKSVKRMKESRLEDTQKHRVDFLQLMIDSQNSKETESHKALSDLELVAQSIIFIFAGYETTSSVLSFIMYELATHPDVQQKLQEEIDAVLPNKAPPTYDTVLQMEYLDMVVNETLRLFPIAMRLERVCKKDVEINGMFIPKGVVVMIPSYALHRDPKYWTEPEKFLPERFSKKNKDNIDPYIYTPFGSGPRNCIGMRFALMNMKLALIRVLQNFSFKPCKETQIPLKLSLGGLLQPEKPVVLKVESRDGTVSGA
Sequence of Cytochrome P450 2C19 (P33261 whole entry): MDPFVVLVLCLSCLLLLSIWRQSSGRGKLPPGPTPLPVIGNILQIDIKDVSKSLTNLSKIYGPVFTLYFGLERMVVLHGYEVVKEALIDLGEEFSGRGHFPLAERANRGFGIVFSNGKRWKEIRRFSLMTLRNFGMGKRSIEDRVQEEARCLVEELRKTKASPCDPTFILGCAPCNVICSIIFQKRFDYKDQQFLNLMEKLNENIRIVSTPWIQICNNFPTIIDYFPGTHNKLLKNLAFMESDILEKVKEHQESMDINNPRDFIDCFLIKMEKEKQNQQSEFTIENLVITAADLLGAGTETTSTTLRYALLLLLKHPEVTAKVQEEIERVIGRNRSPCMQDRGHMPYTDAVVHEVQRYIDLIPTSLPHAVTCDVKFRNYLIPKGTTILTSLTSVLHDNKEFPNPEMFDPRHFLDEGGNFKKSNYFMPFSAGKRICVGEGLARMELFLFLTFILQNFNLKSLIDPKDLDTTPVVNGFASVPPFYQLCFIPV
Sequence of Cytochrome P450 2C9 (P11712 whole entry): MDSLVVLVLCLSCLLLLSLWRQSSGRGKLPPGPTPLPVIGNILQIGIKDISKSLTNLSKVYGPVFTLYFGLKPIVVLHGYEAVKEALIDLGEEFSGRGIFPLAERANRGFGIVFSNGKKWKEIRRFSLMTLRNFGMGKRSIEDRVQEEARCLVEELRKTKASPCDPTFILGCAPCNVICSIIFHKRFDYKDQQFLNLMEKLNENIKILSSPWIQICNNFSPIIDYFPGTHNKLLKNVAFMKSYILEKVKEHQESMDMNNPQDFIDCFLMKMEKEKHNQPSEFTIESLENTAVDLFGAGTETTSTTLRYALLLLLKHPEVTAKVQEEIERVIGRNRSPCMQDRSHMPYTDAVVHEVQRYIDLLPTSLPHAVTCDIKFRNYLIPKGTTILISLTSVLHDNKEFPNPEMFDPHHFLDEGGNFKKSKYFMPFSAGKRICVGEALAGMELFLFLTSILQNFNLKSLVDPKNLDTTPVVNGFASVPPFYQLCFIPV
Sequence of Cytochrome P450 2D6 (P10635 whole entry): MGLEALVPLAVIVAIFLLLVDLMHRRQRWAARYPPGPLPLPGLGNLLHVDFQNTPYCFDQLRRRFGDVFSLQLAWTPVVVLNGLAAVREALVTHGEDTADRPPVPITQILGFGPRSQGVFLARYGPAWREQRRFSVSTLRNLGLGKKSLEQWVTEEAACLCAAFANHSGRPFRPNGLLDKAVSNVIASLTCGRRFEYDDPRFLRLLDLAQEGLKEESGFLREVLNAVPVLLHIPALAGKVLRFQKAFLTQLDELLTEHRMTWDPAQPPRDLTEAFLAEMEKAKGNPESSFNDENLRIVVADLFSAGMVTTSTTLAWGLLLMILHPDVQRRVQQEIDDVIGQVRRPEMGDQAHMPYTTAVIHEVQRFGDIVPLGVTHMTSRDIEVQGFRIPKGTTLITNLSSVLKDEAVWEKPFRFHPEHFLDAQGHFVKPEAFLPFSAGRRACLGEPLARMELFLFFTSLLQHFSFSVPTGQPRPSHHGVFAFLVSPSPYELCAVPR
Sequence of CYP3A4 (P08684 whole entry): as the sequence (P08684 whole entry) above

Structure (SMILES) | MIC [1] | MIC [2] | MIC [3] | MIC (Mycobacterium avium) | MIC (Mycobacteroides chelonae) | MIC [4] | MIC [5] | MIC [6] | MIC [7] | MIC [8] | MIC [9] | IC50 (Cytochrome P450 2B6) | IC50 (Cytochrome P450 2C9) | IC50 (Cytochrome P450 3A4 [10]) | IC50 (Cytochrome P450 2C8) | IC50 (Cytochrome P450 3A4 [11]) | solubility [12] | IC50 (Cytochrome P450 2C19) | fraction unbound [13] | MIC [14] | further results
CC12CC3CC(C)(C1)CC(C(=O)Nc1nc4ccccc4s1)(C3)C2 | 1 µg/mL (≈ 2.94 µM) | 2 µg/mL (≈ 5.87 µM) | 4 µg/mL (≈ 11.7 µM) | 2 µg/mL (≈ 5.87 µM) |  |  |  |  |  |  |  |  |  |  |  |  |  |  |  |  | 
O=C(Nc1nc2ccc(C(F)(F)F)cc2s1)C1CCC2(CC1)CC2 | 32 µg/mL (≈ 90.3 µM) | > 64 µg/mL | 32 µg/mL (≈ 90.3 µM) | 64 µg/mL (≈ 181 µM) | 4 µg/mL (≈ 11.3 µM) | 8 µg/mL (≈ 22.6 µM) | > 64 µg/mL | 8 µg/mL (≈ 22.6 µM) | > 64 µg/mL | 16 µg/mL (≈ 45.1 µM) | 16 µg/mL (≈ 45.1 µM) |  |  |  |  |  |  |  |  |  | 
CC1CC(C(=O)Nc2nc3ccc(OC(F)(F)F)cc3s2)CC(C)(C)C1 (stereo not given) |  | > 64 µg/mL |  | > 64 µg/mL | 0.12 µg/mL (≈ 0.311 µM) | 0.25 µg/mL (≈ 0.647 µM) | 0.25 µg/mL (≈ 0.647 µM) | 0.5 µg/mL (≈ 1.29 µM) | 1 µg/mL (≈ 2.59 µM) | 0.25 µg/mL (≈ 0.647 µM) | 0.25 µg/mL (≈ 0.647 µM) | > 20 µM | > 20 µM | > 20 µM | > 20 µM | > 20 µM | Insoluble | > 20 µM | < 0.01 | 0.25 µg/mL (≈ 0.647 µM) | Activity (RBCs): Non-Toxic; IC50 (Cytochrome P450 2D6): > 20000 nM; IC50 (HepG2): > 100 µM
CC1CC(C(=O)Nc2nc3ccc(Br)cc3s2)CC(C)(C)C1 (stereo not given) |  | > 64 µg/mL | 2 µg/mL (≈ 5.24 µM) | > 64 µg/mL | 0.5 µg/mL (≈ 1.31 µM) | 0.5 µg/mL (≈ 1.31 µM) | 0.12 µg/mL (≈ 0.315 µM) | 1 µg/mL (≈ 2.62 µM) | 0.5 µg/mL (≈ 1.31 µM) | 0.5 µg/mL (≈ 1.31 µM) | 0.5 µg/mL (≈ 1.31 µM) | 12.8 µM | > 20 µM | > 20 µM | > 20 µM | > 20 µM | Insoluble | 12.7 µM | < 0.01 | 0.25 µg/mL (≈ 0.656 µM) | bioavailability [15]: 75%; clearance [16]: 25 mL/min/kg; Activity (RBCs): Non-Toxic; IC50 (Cytochrome P450 2D6): 1600 nM
CC1CC(C(=O)Nc2nc3ccc(N(C)C)cc3s2)CC(C)(C)C1 (stereo not given) | 32 µg/mL (≈ 92.6 µM) | > 64 µg/mL |  | > 64 µg/mL | 2 µg/mL (≈ 5.79 µM) | 4 µg/mL (≈ 11.6 µM) | 2 µg/mL (≈ 5.79 µM) | > 64 µg/mL | 8 µg/mL (≈ 23.2 µM) | 8 µg/mL (≈ 23.2 µM) | 16 µg/mL (≈ 46.3 µM) |  |  |  |  |  |  |  |  | 64 µg/mL (≈ 185 µM) | 
CC1CC(C(=O)Nc2nc3ccc(Cl)cc3s2)CC(C)(C)C1 (stereo not given) |  | 4 µg/mL (≈ 11.9 µM) | 4 µg/mL (≈ 11.9 µM) | 16 µg/mL (≈ 47.5 µM) | 0.25 µg/mL (≈ 0.742 µM) | 0.5 µg/mL (≈ 1.48 µM) | 0.12 µg/mL (≈ 0.356 µM) | 0.5 µg/mL (≈ 1.48 µM) | 0.25 µg/mL (≈ 0.742 µM) | 0.25 µg/mL (≈ 0.742 µM) | 0.25 µg/mL (≈ 0.742 µM) | 14.9 µM | > 20 µM | > 20 µM | > 20 µM | > 20 µM | Insoluble | 15.5 µM | < 0.01 | 0.25 µg/mL (≈ 0.742 µM) | Activity (RBCs): Non-Toxic; IC50 (Cytochrome P450 2D6): 200 nM
CC1CC(C(=O)Nc2nc3ccc(SC(F)(F)F)cc3s2)CC(C)(C)C1 (stereo not given) | 16 µg/mL (≈ 39.8 µM) | > 64 µg/mL |  | > 64 µg/mL | 0.12 µg/mL (≈ 0.298 µM) | 0.25 µg/mL (≈ 0.621 µM) | 8 µg/mL (≈ 19.9 µM) | 2 µg/mL (≈ 4.97 µM) | > 64 µg/mL | 64 µg/mL (≈ 159 µM) | 0.5 µg/mL (≈ 1.24 µM) |  |  |  |  |  |  |  |  | 0.5 µg/mL (≈ 1.24 µM) | 
CC12CCCC(C(=O)Nc3nc4ccc(OC(F)(F)F)cc4s3)(CCC1)C2 |  | 2 µg/mL (≈ 5.02 µM) | 1 µg/mL (≈ 2.51 µM) | 2 µg/mL (≈ 5.02 µM) | 0.06 µg/mL (≈ 0.151 µM) | 0.06 µg/mL (≈ 0.151 µM) | 0.06 µg/mL (≈ 0.151 µM) | 0.06 µg/mL (≈ 0.151 µM) | 0.5 µg/mL (≈ 1.25 µM) | 0.06 µg/mL (≈ 0.151 µM) | 0.06 µg/mL (≈ 0.151 µM) |  |  |  |  |  |  |  |  | 0.12 µg/mL (≈ 0.301 µM) | inhibition at 10 µM (CYP3A4): > 50%; inhibition at 10 µM (CYP2B6): > 50%
